Laboratory results from US8703701B2 (Indiana University Research and Technology Corporation, priority 2009, dated 2014).
Starred links: 1 amine or outer side, 2 acyl side, 3 side chain; linkers in the order of their positions; H or OH if unused. Non-standard residues stand in square brackets, D forms with d. Residues, ends and D or L forms follow the SMILES beside them. Groups on a side chain read outwards from the residue. *: point of attachment. γGlu = O=C(O)[C@H](CCC(=O)[*:2])N[*:1]; Stearoyl = CCCCCCCCCCCCCCCCCC(=O)*; Palmitoyl = CCCCCCCCCCCCCCCC(=O)*; Myristoyl = CCCCCCCCCCCCCC(=O)*; Aib = CC(C)(N)C(=O)O

Key:
GLP-1 receptor = biological target: T1, GLP-1 receptor (Homo sapiens, UniProt P43220); assay: cAMP induction, firefly luciferase reporter assay, GLP-1 receptor; assay type: cell-based; conditions: for Activity at GLP-1 Receptor % Relative Activity: compared to native GLP-1
T1 construct: expressed in transfected cells; host or cells: HEK293
T1 sequence (P43220 24-463): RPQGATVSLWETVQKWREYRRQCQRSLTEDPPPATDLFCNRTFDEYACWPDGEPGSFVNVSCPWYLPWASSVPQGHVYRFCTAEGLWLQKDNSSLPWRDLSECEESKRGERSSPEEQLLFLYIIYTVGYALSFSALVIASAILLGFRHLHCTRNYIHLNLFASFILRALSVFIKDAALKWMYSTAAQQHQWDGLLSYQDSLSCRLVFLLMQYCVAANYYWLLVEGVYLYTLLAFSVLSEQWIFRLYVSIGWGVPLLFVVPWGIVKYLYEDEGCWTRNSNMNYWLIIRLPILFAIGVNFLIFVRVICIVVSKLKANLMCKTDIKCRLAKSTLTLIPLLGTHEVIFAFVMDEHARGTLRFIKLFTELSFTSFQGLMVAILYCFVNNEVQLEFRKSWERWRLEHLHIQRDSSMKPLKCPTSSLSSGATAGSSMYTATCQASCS
Procedure: (§1) The ability of each peptide to induce cAMP was measured in a firefly luciferase-based reporter assay.
(§2) At the end of the incubation, 100 μL of LucLite luminescence substrate reagent (Perkin Elmer, Wellesley, Mass.) were added to each well. The plate was shaken briefly, incubated 10 min in the dark and light output was measured on MicroBeta-1450 liquid scintillation counter (Perkin-Elmer, Wellesley, Mass.).

glucagon receptor = biological target: T2, glucagon receptor (Homo sapiens, UniProt P47871); assay: cAMP induction, firefly luciferase reporter assay, glucagon receptor; assay type: cell-based; conditions: for Activity at Glucagon Receptor % Relative Activity: compared to native glucagon; for EC50: Activity at Glucagon Receptor EC50 [pM]
T2 construct: expressed in transfected cells; host or cells: HEK293
T2 sequence (P47871 26-477): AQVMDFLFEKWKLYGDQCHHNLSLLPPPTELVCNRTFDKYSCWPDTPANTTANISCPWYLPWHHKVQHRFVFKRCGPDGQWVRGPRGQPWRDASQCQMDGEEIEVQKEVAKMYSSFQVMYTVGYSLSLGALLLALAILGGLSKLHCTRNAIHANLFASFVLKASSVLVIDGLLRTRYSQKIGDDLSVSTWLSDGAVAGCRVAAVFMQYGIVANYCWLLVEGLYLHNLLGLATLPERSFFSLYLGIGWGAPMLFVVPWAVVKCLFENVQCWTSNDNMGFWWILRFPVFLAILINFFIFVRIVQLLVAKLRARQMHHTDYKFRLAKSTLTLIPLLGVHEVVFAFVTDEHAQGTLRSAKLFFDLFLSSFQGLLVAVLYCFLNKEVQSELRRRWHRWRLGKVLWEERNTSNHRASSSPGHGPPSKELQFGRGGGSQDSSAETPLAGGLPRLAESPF
Procedure: as §1, §2

[1] = Activity at GLP-1 Receptor EC50 (nM), Table 2B
[2] = Activity at GLP-1 Receptor EC50 [pM], Table 3B

Activity at GLP-1 Receptor % Relative Activity (GLP-1 receptor; Table 2B) | Activity at Glucagon Receptor % Relative Activity (glucagon receptor; Table 2B) | EC50 (GLP-1 receptor; [1]) | EC50 (GLP-1 receptor; [2]) | Activity at GLP-1 Receptor % Relative Activity (GLP-1 receptor; Table 3B) | Activity at Glucagon Receptor % Relative Activity (glucagon receptor; Table 3B) | EC50 (glucagon receptor; Table 3B) | Structure (SMILES)
308% | 79% | 0.012 nM | – | – | – | – | CC(C)C[C@H](NC(=O)[C@H](Cc1c[nH]c2ccccc12)NC(=O)[C@H](CS)NC(=O)[C@@H](NC(=O)[C@H](Cc1ccccc1)NC(=O)[C@H](CCC(=O)O)NC(=O)[C@H](CCCCN)NC(=O)[C@H](C)NC(=O)[C@H](C)NC(=O)[C@H](CCCCN)NC(=O)C(C)(C)NC(=O)[C@H](CC(=O)O)NC(=O)[C@H](CC(C)C)NC(=O)[C@H](Cc1ccc(O)cc1)NC(=O)[C@H](CCCCN)NC(=O)[C@H](CO)NC(=O)[C@H](Cc1ccc(O)cc1)NC(=O)[C@H](CC(=O)O)NC(=O)[C@H](CO)NC(=O)[C@@H](NC(=O)[C@H](Cc1ccccc1)NC(=O)[C@@H](NC(=O)CNC(=O)[C@H](CCC(N)=O)NC(=O)C(C)(C)NC(=O)[C@@H](N)Cc1c[nH]cn1)[C@@H](C)O)[C@@H](C)O)C(C)C)C(=O)N[C@@H](CC(C)C)C(=O)N[C@@H](CC(=O)O)C(=O)N[C@H](C(N)=O)[C@@H](C)O [compound 64] (H-H[Aib]QGTFTSDYSKYLD[Aib]KAAKEFVCWLLDT-NH2; N-terminus assumed)
64% | 264% | – | – | – | – | – | CSCC[C@H](NC(=O)[C@H](CC(C)C)NC(=O)[C@H](Cc1c[nH]c2ccccc12)NC(=O)[C@H](CCC(N)=O)NC(=O)[C@@H](NC(=O)[C@H](Cc1ccccc1)NC(=O)[C@H](CCC(=O)O)NC(=O)[C@H](CCCCN)NC(=O)[C@H](C)NC(=O)[C@H](CCCNC(=N)N)NC(=O)[C@H](CCCCN)NC(=O)[C@H](CCC(=O)O)NC(=O)[C@H](CC(=O)O)NC(=O)[C@H](CC(C)C)NC(=O)[C@H](Cc1ccc(O)cc1)NC(=O)[C@H](CCCCN)NC(=O)[C@H](CO)NC(=O)[C@H](Cc1ccc(O)cc1)NC(=O)[C@H](CC(=O)O)NC(=O)[C@H](CO)NC(=O)[C@@H](NC(=O)[C@H](Cc1ccccc1)NC(=O)[C@@H](NC(=O)CNC(=O)[C@H](CCC(N)=O)NC(=O)[C@H](CO)NC(=O)[C@@H](N)Cc1c[nH]cn1)[C@@H](C)O)[C@@H](C)O)C(C)C)C(=O)N[C@@H](CC(N)=O)C(=O)N[C@H](C(N)=O)[C@@H](C)O [compound 65]
47% | 93% | – | – | – | – | – | CSCC[C@H](NC(=O)[C@H](CC(C)C)NC(=O)[C@H](Cc1c[nH]c2ccccc12)NC(=O)[C@H](CCC(N)=O)NC(=O)[C@@H](NC(=O)[C@H](Cc1ccccc1)NC(=O)[C@H](CC(=O)O)NC(=O)[C@H](CCCCN)NC(=O)[C@H](C)NC(=O)[C@H](CCCNC(=N)N)NC(=O)[C@H](CCCNC(=N)N)NC(=O)[C@H](CCC(=O)O)NC(=O)[C@H](CC(=O)O)NC(=O)[C@H](CC(C)C)NC(=O)[C@H](Cc1ccc(O)cc1)NC(=O)[C@H](CCCCN)NC(=O)[C@H](CO)NC(=O)[C@H](Cc1ccc(O)cc1)NC(=O)[C@H](CC(=O)O)NC(=O)[C@H](CO)NC(=O)[C@@H](NC(=O)[C@H](Cc1ccccc1)NC(=O)[C@@H](NC(=O)CNC(=O)[C@H](CCC(N)=O)NC(=O)[C@H](CO)NC(=O)[C@@H](N)Cc1c[nH]cn1)[C@@H](C)O)[C@@H](C)O)C(C)C)C(=O)N[C@@H](CC(N)=O)C(=O)N[C@H](C(N)=O)[C@@H](C)O [compound 67]
– | – | – | 0.005 nM | 440% | 325% | – | CCCCCCCCCCCCCCCC(=O)NCCCC[C@H](NC(=O)[C@H](CC(=O)O)NC(=O)[C@H](CO)NC(=O)[C@@H](NC(=O)[C@H](Cc1ccccc1)NC(=O)[C@@H](NC(=O)CNC(=O)[C@H](CCC(N)=O)NC(=O)C(C)(C)NC(=O)[C@@H](N)Cc1c[nH]cn1)[C@@H](C)O)[C@@H](C)O)C(=O)N[C@@H](CO)C(=O)N[C@@H](CCCCN)C(=O)N[C@@H](Cc1ccc(O)cc1)C(=O)N[C@@H](CC(C)C)C(=O)N[C@@H](CC(=O)O)C(=O)NC(C)(C)C(=O)N[C@@H](CCCNC(=N)N)C(=O)N[C@@H](C)C(=O)N[C@@H](C)C(=O)N[C@@H](CCC(N)=O)C(=O)N[C@@H](CC(=O)O)C(=O)N[C@@H](Cc1ccccc1)C(=O)N[C@H](C(=O)N[C@@H](CCC(N)=O)C(=O)N[C@@H](Cc1c[nH]c2ccccc12)C(=O)N[C@@H](CC(C)C)C(=O)N[C@@H](CCSC)C(=O)N[C@@H](CC(=O)O)C(=O)N[C@H](C(N)=O)[C@@H](C)O)C(C)C [compound 69] (H-H[Aib]QGTFTSDK(Palmitoyl)SKYLD[Aib]RAAQDFVQWLMDT-NH2; N-terminus assumed)

Continued, molecule first:

Structure (SMILES) | Activity at GLP-1 Receptor % Relative Activity (GLP-1 receptor; Table 2B) | Activity at Glucagon Receptor % Relative Activity (glucagon receptor; Table 2B) | EC50 (GLP-1 receptor; [1]) | EC50 (GLP-1 receptor; [2]) | Activity at GLP-1 Receptor % Relative Activity (GLP-1 receptor; Table 3B) | Activity at Glucagon Receptor % Relative Activity (glucagon receptor; Table 3B) | EC50 (glucagon receptor; Table 3B)
CCCCCCCCCCCCCCCC(=O)N[C@@H](CCC(=O)NCCCC[C@H](NC(=O)[C@H](CC(=O)O)NC(=O)[C@H](CO)NC(=O)[C@@H](NC(=O)[C@H](Cc1ccccc1)NC(=O)[C@@H](NC(=O)CNC(=O)[C@H](CCC(N)=O)NC(=O)[C@@H](CO)NC(=O)[C@@H](N)Cc1c[nH]cn1)[C@@H](C)O)[C@@H](C)O)C(=O)N[C@@H](CO)C(=O)N[C@@H](CCCCN)C(=O)N[C@@H](Cc1ccc(O)cc1)C(=O)N[C@@H](CC(C)C)C(=O)N[C@@H](CC(=O)O)C(=O)NC(C)(C)C(=O)N[C@@H](CCCCN)C(=O)N[C@@H](CCCNC(=N)N)C(=O)N[C@@H](C)C(=O)N[C@@H](CCCCN)C(=O)N[C@@H](CCC(=O)O)C(=O)N[C@@H](Cc1ccccc1)C(=O)N[C@H](C(=O)N[C@@H](CS)C(=O)N[C@@H](Cc1c[nH]c2ccccc12)C(=O)N[C@@H](CC(C)C)C(=O)N[C@@H](CC(C)C)C(=O)N[C@@H](CC(=O)O)C(=O)N[C@H](C(N)=O)[C@@H](C)O)C(C)C)C(=O)O [compound 62] (H-H[dS]QGTFTSDK([γGlu-Palmitoyl])SKYLD[Aib]KRAKEFVCWLLDT-NH2; N-terminus assumed) | 246% | 113% | – | – | – | – | –
CCCCCCCCCCCCCCCC(=O)N[C@@H](CCC(=O)N[C@@H](CCC(=O)NCCCC[C@H](NC(=O)[C@H](CC(=O)O)NC(=O)[C@H](CO)NC(=O)[C@@H](NC(=O)[C@H](Cc1ccccc1)NC(=O)[C@@H](NC(=O)CNC(=O)[C@H](CCC(N)=O)NC(=O)[C@@H](CO)NC(=O)[C@@H](N)Cc1c[nH]cn1)[C@@H](C)O)[C@@H](C)O)C(=O)N[C@@H](CO)C(=O)N[C@@H](CCCCN)C(=O)N[C@@H](Cc1ccc(O)cc1)C(=O)N[C@@H](CC(C)C)C(=O)N[C@@H](CC(=O)O)C(=O)NC(C)(C)C(=O)N[C@@H](CCCCN)C(=O)N[C@@H](CCCNC(=N)N)C(=O)N[C@@H](C)C(=O)N[C@@H](CCCCN)C(=O)N[C@@H](CCC(=O)O)C(=O)N[C@@H](Cc1ccccc1)C(=O)N[C@H](C(=O)N[C@@H](CS)C(=O)N[C@@H](Cc1c[nH]c2ccccc12)C(=O)N[C@@H](CC(C)C)C(=O)N[C@@H](CC(C)C)C(=O)N[C@@H](CC(=O)O)C(=O)N[C@H](C(N)=O)[C@@H](C)O)C(C)C)C(=O)O)C(=O)O [compound 63] (H-H[dS]QGTFTSDK([γGlu-γGlu-Palmitoyl])SKYLD[Aib]KRAKEFVCWLLDT-NH2; N-terminus assumed) | 345% | 115% | 0.02 nM | – | – | – | –
CCCCCCCCCCCCCC(=O)N[C@@H](CCC(=O)N[C@@H](CCC(=O)NCCCC[C@H](NC(=O)[C@H](CC(=O)O)NC(=O)[C@H](CO)NC(=O)[C@@H](NC(=O)[C@H](Cc1ccccc1)NC(=O)[C@@H](NC(=O)CNC(=O)[C@H](CCC(N)=O)NC(=O)C(C)(C)NC(=O)[C@@H](N)Cc1c[nH]cn1)[C@@H](C)O)[C@@H](C)O)C(=O)N[C@@H](CO)C(=O)N[C@@H](CCCCN)C(=O)N[C@@H](Cc1ccc(O)cc1)C(=O)N[C@@H](CC(C)C)C(=O)N[C@@H](CC(=O)O)C(=O)NC(C)(C)C(=O)N[C@@H](CCCNC(=N)N)C(=O)N[C@@H](C)C(=O)N[C@@H](C)C(=O)N[C@@H](CCC(N)=O)C(=O)N[C@@H](CC(=O)O)C(=O)N[C@@H](Cc1ccccc1)C(=O)N[C@H](C(=O)N[C@@H](CCC(N)=O)C(=O)N[C@@H](Cc1c[nH]c2ccccc12)C(=O)N[C@@H](CC(C)C)C(=O)N[C@@H](CCSC)C(=O)N[C@@H](CC(=O)O)C(=O)N[C@H](C(N)=O)[C@@H](C)O)C(C)C)C(=O)O)C(=O)O [compound 70] (H-H[Aib]QGTFTSDK([γGlu-γGlu-Myristoyl])SKYLD[Aib]RAAQDFVQWLMDT-NH2; N-terminus assumed) | – | – | – | 0.004 nM | 500% | 709% | 6 pM
CCCCCCCCCCCCCCCCCC(=O)N[C@@H](CCC(=O)N[C@@H](CCC(=O)NCCCC[C@H](NC(=O)[C@H](CC(=O)O)NC(=O)[C@H](CO)NC(=O)[C@@H](NC(=O)[C@H](Cc1ccccc1)NC(=O)[C@@H](NC(=O)CNC(=O)[C@H](CCC(N)=O)NC(=O)C(C)(C)NC(=O)[C@@H](N)Cc1c[nH]cn1)[C@@H](C)O)[C@@H](C)O)C(=O)N[C@@H](CO)C(=O)N[C@@H](CCCCN)C(=O)N[C@@H](Cc1ccc(O)cc1)C(=O)N[C@@H](CC(C)C)C(=O)N[C@@H](CC(=O)O)C(=O)NC(C)(C)C(=O)N[C@@H](CCCNC(=N)N)C(=O)N[C@@H](C)C(=O)N[C@@H](C)C(=O)N[C@@H](CCC(N)=O)C(=O)N[C@@H](CC(=O)O)C(=O)N[C@@H](Cc1ccccc1)C(=O)N[C@H](C(=O)N[C@@H](CCC(N)=O)C(=O)N[C@@H](Cc1c[nH]c2ccccc12)C(=O)N[C@@H](CC(C)C)C(=O)N[C@@H](CCSC)C(=O)N[C@@H](CC(=O)O)C(=O)N[C@H](C(N)=O)[C@@H](C)O)C(C)C)C(=O)O)C(=O)O [compound 71] (H-H[Aib]QGTFTSDK([γGlu-γGlu-Stearoyl])SKYLD[Aib]RAAQDFVQWLMDT-NH2; N-terminus assumed) | – | – | – | – | 1222% | 975% | 4 pM
